The values below come from PubChem BioAssay AID1918941 (Molecular Pharmacology Branch, DTP, NCI, 2023).

The test system of this assay is SW 1271 complex spheroids, viability. Briefly: Anticancer human tumor SW 1271 cell line growth inhibition [LSD1].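 On all read-outs here: spheroids exposed to agents for 7 days before luminescence read.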 As to conditions: for viability, T/C: stronger effect = lower value. The source says:
Multicellular complex tumor spheroid response to LSD1 Inhibitor Iadademstat in combination with a variety of drugs and investigational agents in selected tumor cell lines
The current study was undertaken to assess response to LSD1 inhibitors in combination with standard-of-care drugs and investigational agents in solid tumor complex spheroid models as well as in the K-562 leukemia. Complex spheroids include a stromal component modeled by human endothelial cells (HUVEC) and fibroblasts modeled by human mesenchymal stem cells (MSCs). The concentration ranges selected for each drug and investigational agent were based upon clinically achievable concentrations if the clinical Cmax of the agent was known.
Compounds. The drugs and investigational agents used in this study are listed on Table 1. All of the agents used, including staurosporine (NSC755774) and gemcitabine (NSC613327), were obtained from the Developmental Therapeutics Program, NCI. FDA-approved anticancer drugs are available from the NCI at http://dtp.nci.nih.gov/branches/dscb/oncology_drugset_explanation.html. Drugs and investigational agents were >95% pure by proton nuclear magnetic resonance (NMR) and liquid chromatography/mass spectrometry (LC/MS). Stock solutions were prepared at 400x in DMSO, stored at -70 degrees C, and diluted in fresh medium prior to their use. The final concentration of DMSO in cell culture wells never exceeded 0.25% (v/v). The FDA-approved anticancer drug set is available from the Developmental Therapeutics Program at https://dtp.cancer.gov/organization/dscb/obtaining/available_plates.htm. All drugs and investigational agents were tested over a range starting from a high concentration at or near the clinical Cmax and decreasing in half-log increments. If the clinical Cmax for an agent had not been determined, the highest concentration tested was 10 microM.
Cell Lines. The patient-derived cancer cell (PDC) lines: 292921-168-R-J2-PDC, K24384-001-R-PDC, and 521955-158-R2-J5-PDC pancreatic carcinomas, 556581-035-R-J1 ovarian carcinoma, 324938-238-R-J1-PDC, 855422-203-R-J1-PDC and 883617-216-R-J1-PDC urothelial bladder carcinomas, 743489-274-T-PDC renal cell carcinoma, 138582-R-J1 Merkel cell tumor, K60290-347-R-J1 and K57222-313-R-J1-PDC glioblastomas, 653999-131-R-J2-PDC, LG0703-F948-PDC, and 349418-098-R-PDC non-small cell lung carcinomas, 885512-296-R-J2-PDC, 171881-019-R-J1-PDC breast carcinomas and 186277-243-T-J2-PDC and 233499-124-R-J2-PDC colon carcinomas were obtained from the NCI Patient-Derived Models Repository (PDMR, https://pdmr.cancer.gov). The established cell lines NCI/ADR-RES (RRID:CVCL_14520 and OVCAR-5 (RRID:CVCL_1628) ovarian carcinomas, 786-O (RRID:CVCL_1051) and A498 (RRID:CVCL_A498) renal cell carcinoma, NCI-H211 (ATCC, cat. CRL-5824; RRID:CVCL_1529), NCI-H196 (ATCC, cat. CRL-5823, RRID:CVCL_1509), SW 1271 (ATCC, cat. CRL-2177, RRID:CVCL_1716) and NCI-H1876 (ATCC, cat. CRL-5902, RRID:CVCL_1503) small cell lung carcinomas, MDA-MB-231 (RRID:CVCL_0062) and MDA-MB-468 (RRID:CVCL_0419)breast carcinomas (10-12). Pooled donor human umbilical vein endothelial cells (HUVEC, Lonza, cat. CC-2519) and human mesenchymal stem cells (hMSC, Lonza, cat. PT-2501) were purchased from Lonza (Walkersville, MD).
Cell Culture. All cells were maintained in an incubator at 37 degrees C and 5% CO2 with 95% humidity. The PDC lines were cultured according to standard operating procedures established by the NCI PDMR (https://pdmr.cancer.gov). Briefly all PDCs were thawed and cultured in Matrigel-coated flasks prepared with a working solution of 1X Ham's F-12 nutrient mix, without supplementation (Invitrogen, Waltham, MA, cat. 11765054), 100 U/mL penicillin-streptomycin (Invitrogen, cat. 15140122), and 2.5% Matrigel (Corning Inc., Corning, NY, cat. 354248) for the first three passages. […]

The structures appear in SMILES notation. Several values for one entry are separate records, joined by “and”; a condition that tells them apart may be missing. Identical values can stand only once.

For the compound `CC[C@@]1(O)C(=O)OCc2c1cc1n(c2=O)Cc2cc3c(CN(C)C)c(O)ccc3nc2-1`, the viability, T/C – broadly, the ratio of treated to control – reads like this: (compound 0.000316 µM) 88.2% and 98.2%; (compound 0.001 µM) 89.6% and 109%; (compound 0.00316 µM) 72.7% and 75.3%; (compound 0.01 µM) 66.6% and 85.6%; (compound 0.0316 µM) 58.7% and 65.7%; (compound 0.1 µM) 49.4% and 53.2%. The IC50 (in general, the concentration needed to halve the response being measured) (curve of compound) was more than 100 nM.

As to `Cn1ncnc1C1c2n[nH]c(=O)c3cc(F)cc(c23)NC1c1ccc(F)cc1` (stereo not drawn) + NC1CCC(NC2CC2c2ccccc2)CC1, the 50% inhibitory concentration (IC50) is more than 100 nM (curve of first compound, second compound 0.1 µM); more than 100 nM (curve of first compound, second compound 0.316 µM); more than 100 nM (curve of first compound, second compound 1 µM); more than 100 nM (curve of first compound, second compound 3.16 µM); more than 100 nM (curve of first compound, second compound 10 µM). The viability, T/C is, setting by setting: (second compound 0.1 µM, first compound 0.000316 µM) 93%; (second compound 0.1 µM, first compound 0.001 µM) 104%; (second compound 0.1 µM, first compound 0.00316 µM) 88.4%; (second compound 0.1 µM, first compound 0.01 µM) 94.9%; (second compound 0.1 µM, first compound 0.0316 µM) 88.6%; (second compound 0.1 µM, first compound 0.1 µM) 90.4%. For the same compound, the viability, T/C is 86.9% (second compound 0.316 µM, first compound 0.000316 µM); 98.3% (second compound 0.316 µM, first compound 0.001 µM); 103% (second compound 0.316 µM, first compound 0.00316 µM); 91.8% (second compound 0.316 µM, first compound 0.01 µM); 82.8% (second compound 0.316 µM, first compound 0.0316 µM); 86.8% (second compound 0.316 µM, first compound 0.1 µM). Moreover, the viability, T/C (second compound 1 µM, first compound 0.000316 µM) was 91.7%; the viability, T/C (second compound 1 µM, first compound 0.001 µM) is 90.9%; the viability, T/C (second compound 1 µM, first compound 0.00316 µM) is 83.5%; the viability, T/C (second compound 1 µM, first compound 0.01 µM) is 84.3%; the viability, T/C (second compound 1 µM, first compound 0.0316 µM) is 85%; the viability, T/C (second compound 1 µM, first compound 0.1 µM) was 83%. Also, the viability, T/C is 83.4% (second compound 3.16 µM, first compound 0.000316 µM); 87.7% (second compound 3.16 µM, first compound 0.001 µM); 79.9% (second compound 3.16 µM, first compound 0.00316 µM); 98.1% (second compound 3.16 µM, first compound 0.01 µM); 76.5% (second compound 3.16 µM, first compound 0.0316 µM); 93.2% (second compound 3.16 µM, first compound 0.1 µM). Moreover, the viability, T/C (second compound 10 µM, first compound 0.000316 µM) was 98.6%; the viability, T/C (second compound 10 µM, first compound 0.001 µM) is 86.7%; the viability, T/C (second compound 10 µM, first compound 0.00316 µM) was 83.5%; the viability, T/C (second compound 10 µM, first compound 0.01 µM) is 88.1%; the viability, T/C (second compound 10 µM, first compound 0.0316 µM) is 85.3%; the viability, T/C (second compound 10 µM, first compound 0.1 µM) is 81.7%.

On to `CC1COCCN1c1cc(C2(S(C)(=N)=O)CC2)nc(-c2ccnc3[nH]ccc23)n1` (stereo not drawn), for which the viability, T/C is 106% and 85.9% (compound 0.0316 µM); 97% and 88.6% (compound 0.1 µM); 88.2% and 78.9% (compound 0.316 µM); 79% and 65.3% (compound 1 µM); 62% and 54.3% (compound 3.16 µM); 62.1% and 39.4% (compound 10 µM). The IC50 (curve of compound) was > 10000 nM and 3980 nM.

On to `CC(C)CC(NC(=O)C(Cc1ccccc1)NC(=O)c1cnccn1)B(O)O` (stereo not drawn), for which the viability, T/C by setting is: (compound 0.000316 µM) 1.55% and 4.22%; (compound 0.001 µM) 0.42% and 0.29%; (compound 0.00316 µM) 0.34% and 0.36%; (compound 0.01 µM) 0.16% and 0.3%; (compound 0.0316 µM) 0.16% and 0.18%; (compound 0.1 µM) 0.24% and 0.23%. Also, for the setting “curve of compound”, the IC50 was less than 0.316 nM.

Take `Nc1ncn(C2CC(O)C(CO)S2)c(=O)n1` (stereo not drawn): the viability, T/C by setting is: (compound 0.000949 µM) 105% and 83.6%; (compound 0.003 µM) 112% and 88.6%; (compound 0.00949 µM) 99.5% and 86.3%; (compound 0.03 µM) 108% and 83.2%; (compound 0.0949 µM) 94.7% and 91.1%; (compound 0.3 µM) 88.5% and 71.2%. Further, the IC50 (curve of compound) is more than 300 nM.
